Measured values as given in ChEMBL document CHEMBL1154382, “Preliminary SAR analysis of novel antiproliferative N(6),5'-bis-ureidoadenosine derivatives” (2009).

Legend:
Type in all cases: functional
Conditions in all cases: values are per cent of control
NCI-H522 = test: Antiproliferative activity against human NCI-H522 cells at 10 uM assessed as cell growth inhibition relative to control
UACC-62 = test: Antiproliferative activity against human UACC62 cells at 10 uM assessed as cell growth inhibition relative to control
OVCAR-4 = test: Antiproliferative activity against human OVCAR4 cells at 10 uM assessed as cell growth inhibition relative to control
M14 = test: Antiproliferative activity against human M14 cells at 10 uM assessed as cell growth inhibition relative to control
OVCAR-8 = test: Antiproliferative activity against human OVCAR8 cells at 10 uM assessed as cell growth inhibition relative to control
SF-539 = test: Antiproliferative activity against human SF539 cells at 10 uM assessed as cell growth inhibition relative to control
[1] = Antiproliferative activity against human Hs 578T cells at 10 uM assessed as cell growth inhibition relative to control
DU-145 = test: Antiproliferative activity against human DU145 cells at 10 uM assessed as cell growth inhibition relative to control
BT-549 = test: Antiproliferative activity against human BT549 cells at 10 uM assessed as cell growth inhibition relative to control
T47D = test: Antiproliferative activity against human T47D cells at 10 uM assessed as cell growth inhibition relative to control
SN12C = test: Antiproliferative activity against human SN12C cells at 10 uM assessed as cell growth inhibition relative to control
SF-295 = test: Antiproliferative activity against human SF295 cells at 10 uM assessed as cell growth inhibition relative to control
KM12 = test: Antiproliferative activity against human KM12 cells at 10 uM assessed as cell growth inhibition relative to control
NCI-H226 = test: Antiproliferative activity against human NCI-H226 cells at 10 uM assessed as cell growth inhibition relative to control
COLO 205 = test: Antiproliferative activity against human COLO205 cells at 10 uM assessed as cell growth inhibition relative to control
HCC 2998 = test: Antiproliferative activity against human HCC2998 cells at 10 uM assessed as cell growth inhibition relative to control
HOP-62 = test: Antiproliferative activity against human HOP62 cells at 10 uM assessed as cell growth inhibition relative to control
HCT-116 = test: Antiproliferative activity against human HCT116 cells at 10 uM assessed as cell growth inhibition relative to control
MDA-MB-468 = test: Antiproliferative activity against human MDA-MB-468 cells at 10 uM assessed as cell growth inhibition relative to control
UO-31 = test: Antiproliferative activity against human UO31 cells at 10 uM assessed as cell growth inhibition relative to control
SW-620 = test: Antiproliferative activity against human SW620 cells at 10 uM assessed as cell growth inhibition relative to control
OVCAR-5 = test: Antiproliferative activity against human OVCAR5 cells at 10 uM assessed as cell growth inhibition relative to control
SK-MEL-28 = test: Antiproliferative activity against human SK-MEL-28 cells at 10 uM assessed as cell growth inhibition relative to control
HL-60(TB) = test: Antiproliferative activity against human HL-60(TB) cells at 10 uM assessed as cell growth inhibition relative to control
MCF7 = test: Antiproliferative activity against human MCF7 cells at 10 uM assessed as cell growth inhibition relative to control
HOP-92 = test: Antiproliferative activity against human HOP92 cells at 10 uM assessed as cell growth inhibition relative to control
LOX IMVI = test: Antiproliferative activity against human LOXIMVI cells at 10 uM assessed as cell growth inhibition relative to control
SNB-75 = test: Antiproliferative activity against human SNB75 cells at 10 uM assessed as cell growth inhibition relative to control
786-0 = test: Antiproliferative activity against human 786-0 cells at 10 uM assessed as cell growth inhibition relative to control
IGROV-1 = test: Antiproliferative activity against human IGROV1 cells at 10 uM assessed as cell growth inhibition relative to control
A498 = test: Antiproliferative activity against human A498 cells at 10 uM assessed as cell growth inhibition relative to control
ACHN = test: Antiproliferative activity against human ACHN cells at 10 uM assessed as cell growth inhibition relative to control
HCT-15 = test: Antiproliferative activity against human HCT15 cells at 10 uM assessed as cell growth inhibition relative to control
NCI-H322M = test: Antiproliferative activity against human NCI-H322M cells at 10 uM assessed as cell growth inhibition relative to control
MDA-MB-231 = test: Antiproliferative activity against human MDA-MB-231 cells at 10 uM assessed as cell growth inhibition relative to control
PC-3 = test: Antiproliferative activity against human PC3 cells at 10 uM assessed as cell growth inhibition relative to control
RXF 393 = test: Antiproliferative activity against human RXF393 cells at 10 uM assessed as cell growth inhibition relative to control
MOLT-4 = test: Antiproliferative activity against human MOLT4 cells at 10 uM assessed as cell growth inhibition relative to control
CAKI-1 = test: Antiproliferative activity against human Caki1 cells at 10 uM assessed as cell growth inhibition relative to control
OVCAR-3 = test: Antiproliferative activity against human OVCAR-3 cells at 10 uM assessed as cell growth inhibition relative to control
K562 = test: Antiproliferative activity against human K562 cells at 10 uM assessed as cell growth inhibition relative to control
CCRF-CEM = test: Antiproliferative activity against human CCRF-CEM cells at 10 uM assessed as cell growth inhibition relative to control
UACC-257 = test: Antiproliferative activity against human UACC257 cells at 10 uM assessed as cell growth inhibition relative to control
SK-MEL-5 = test: Antiproliferative activity against human SK-MEL-5 cells at 10 uM assessed as cell growth inhibition relative to control
HT-29 = test: Antiproliferative activity against human HT-29 cells at 10 uM assessed as cell growth inhibition relative to control
Malme-3M = test: Antiproliferative activity against human MALME-3M cells at 10 uM assessed as cell growth inhibition relative to control
SK-OV-3 = test: Antiproliferative activity against human SKOV3 cells at 10 uM assessed as cell growth inhibition relative to control
NCI-H460 = test: Antiproliferative activity against human NCI-H460 cells at 10 uM assessed as cell growth inhibition relative to control
[2] = Antiproliferative activity against human […] cells at 10 uM assessed as cell growth inhibition relative to control
SF-268 = test: Antiproliferative activity against human SF268 cells at 10 uM assessed as cell growth inhibition relative to control
SNB-19 = test: Antiproliferative activity against human SNB19 cells at 10 uM assessed as cell growth inhibition relative to control
EKVX = test: Antiproliferative activity against human EKVX cells at 10 uM assessed as cell growth inhibition relative to control
SK-MEL-2 = test: Antiproliferative activity against human SK-MEL-2 cells at 10 uM assessed as cell growth inhibition relative to control
NCI-H23 = test: Antiproliferative activity against human NCI-H23 cells at 10 uM assessed as cell growth inhibition relative to control
U-251 = test: Antiproliferative activity against human U251 cells at 10 uM assessed as cell growth inhibition relative to control
A549 = test: Antiproliferative activity against human A549 cells at 10 uM assessed as cell growth inhibition relative to control
TK-10 = test: Antiproliferative activity against human TK10 cells at 10 uM assessed as cell growth inhibition relative to control

CCOC(=O)C=C1[C@@H](O[Si](C)(C)C(C)(C)C)[C@H](n2cnc3c(N)ncnc32)O[C@@H]1CNC(=O)NC
growth, % of control at 10 µM (NCI-H522): 74% | growth, % of control at 10 µM (UACC-62): 79% | growth, % of control at 10 µM (OVCAR-4): 71% | growth, % of control at 10 µM (M14): 87% | growth, % of control at 10 µM (OVCAR-8): 104% | growth, % of control at 10 µM (SF-539): 92% | growth, % of control at 10 µM [1]: 107% | growth, % of control at 10 µM (DU-145): 71% | growth, % of control at 10 µM (BT-549): 80% | growth, % of control at 10 µM (T47D): 79% | growth, % of control at 10 µM (SN12C): 90% | growth, % of control at 10 µM (SF-295): 88% | growth, % of control at 10 µM (KM12): 60% | growth, % of control at 10 µM (NCI-H226): 90% | growth, % of control at 10 µM (COLO 205): 76% | growth, % of control at 10 µM (HCC 2998): 71% | growth, % of control at 10 µM (HOP-62): 99% | growth, % of control at 10 µM (HCT-116): 52% | growth, % of control at 10 µM (MDA-MB-468): 71% | growth, % of control at 10 µM (UO-31): 76% | growth, % of control at 10 µM (SW-620): 88% | growth, % of control at 10 µM (OVCAR-5): 88% | growth, % of control at 10 µM (SK-MEL-28): 111% | growth, % of control at 10 µM (HL-60(TB)): 76% | growth, % of control at 10 µM (MCF7): 94% | growth, % of control at 10 µM (HOP-92): 90% | growth, % of control at 10 µM (LOX IMVI): 74% | growth, % of control at 10 µM (SNB-75): 98% | growth, % of control at 10 µM (786-0): 77% | growth, % of control at 10 µM (IGROV-1): 46% | growth, % of control at 10 µM (A498): 78% | growth, % of control at 10 µM (ACHN): 70% | growth, % of control at 10 µM (HCT-15): 90% | growth, % of control at 10 µM (NCI-H322M): 81% | growth, % of control at 10 µM (MDA-MB-231): 81% | growth, % of control at 10 µM (PC-3): 93% | growth, % of control at 10 µM (RXF 393): 105% | growth, % of control at 10 µM (MOLT-4): 75% | growth, % of control at 10 µM (CAKI-1): 85% | growth, % of control at 10 µM (OVCAR-3): 65% | growth, % of control at 10 µM (K562): 84% | growth, % of control at 10 µM (CCRF-CEM): 119% | growth, % of control at 10 µM (UACC-257): 95% | growth, % of control at 10 µM (SK-MEL-5): 75% | growth, % of control at 10 µM (HT-29): 65% | growth, % of control at 10 µM (Malme-3M): 105% | growth, % of control at 10 µM (SK-OV-3): 102% | growth, % of control at 10 µM (NCI-H460): 110% | growth, % of control at 10 µM [2]: 81% | growth, % of control at 10 µM (SF-268): 98% | growth, % of control at 10 µM (SNB-19): 88% | growth, % of control at 10 µM (EKVX): 86% | growth, % of control at 10 µM (SK-MEL-2): 94% | growth, % of control at 10 µM (NCI-H23): 99% | growth, % of control at 10 µM (U-251): 53% | growth, % of control at 10 µM (A549): 100% | growth, % of control at 10 µM (TK-10): 85%
